Reference: PubChem BioAssay (NCI)
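Abbreviation: GI50, concentration required for 50% inhibition of growth. At the TGI there is no net growth.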

What was measured:
Experiment in all cases: DTP human tumour cell line panel, 384-well format; in the data active = GI50 below about 0.43 µM; inactive = the rest
SNB-19 CNS = tested on: SNB-19 CNS
HOP-62 NSCLC = tested on: HOP-62 NSCLC
TK-10 renal = tested on: TK-10 renal
RXF 393 renal = tested on: RXF 393 renal
HL-60(TB) leukemia = tested on: HL-60(TB) leukemia
UACC-257 melanoma = tested on: UACC-257 melanoma
DU-145 prostate = tested on: DU-145 prostate
IGROV1 ovarian = tested on: IGROV1 ovarian
SR leukemia = tested on: SR leukemia
HCT-15 colon = tested on: HCT-15 colon
UACC-62 melanoma = tested on: UACC-62 melanoma
MDA-MB-468 breast = tested on: MDA-MB-468 breast
COLO 205 colon = tested on: COLO 205 colon
NCI/ADR-RES ovarian = tested on: NCI/ADR-RES ovarian
HT29 colon = tested on: HT29 colon
HS 578T breast = tested on: HS 578T breast
KM12 colon = tested on: KM12 colon
SK-OV-3 ovarian = tested on: SK-OV-3 ovarian
U251 glioblastoma = tested on: U251 glioblastoma
M14 melanoma = tested on: M14 melanoma
NCI-H460 NSCLC = tested on: NCI-H460 NSCLC
LOX IMVI melanoma = tested on: LOX IMVI melanoma
SN12C renal = tested on: SN12C renal
OVCAR-5 ovarian = tested on: OVCAR-5 ovarian
OVCAR-3 ovarian = tested on: OVCAR-3 ovarian
SF-268 CNS = tested on: SF-268 CNS
MALME-3M melanoma = tested on: MALME-3M melanoma
K-562 leukemia = tested on: K-562 leukemia
MDA-MB-231 breast = tested on: MDA-MB-231 breast
NCI-H322M lung = tested on: NCI-H322M lung
A498 renal = tested on: A498 renal
BT-549 breast = tested on: BT-549 breast
OVCAR-8 ovarian = tested on: OVCAR-8 ovarian
SK-MEL-28 melanoma = tested on: SK-MEL-28 melanoma
SF-539 CNS = tested on: SF-539 CNS
CAKI-1 renal = tested on: CAKI-1 renal
786-0 renal = tested on: 786-0 renal
SK-MEL-5 melanoma = tested on: SK-MEL-5 melanoma
A549 NSCLC = tested on: A549 NSCLC
NCI-H226 lung = tested on: NCI-H226 lung
UO-31 renal = tested on: UO-31 renal
MCF7 breast = tested on: MCF7 breast
ACHN renal = tested on: ACHN renal
SNB-75 CNS = tested on: SNB-75 CNS
HCC-2998 colon = tested on: HCC-2998 colon
NCI-H522 lung = tested on: NCI-H522 lung
MDA-MB-435 melanoma = tested on: MDA-MB-435 melanoma
HOP-92 NSCLC = tested on: HOP-92 NSCLC
CCRF-CEM leukemia = tested on: CCRF-CEM leukemia
OVCAR-4 ovarian = tested on: OVCAR-4 ovarian
SW-620 colon = tested on: SW-620 colon
T-47D breast = tested on: T-47D breast
MOLT-4 leukemia = tested on: MOLT-4 leukemia
NCI-H23 lung = tested on: NCI-H23 lung
SF-295 CNS = tested on: SF-295 CNS
EKVX NSCLC = tested on: EKVX NSCLC
RPMI-8226 leukemia = tested on: RPMI-8226 leukemia
PC-3 prostate = tested on: PC-3 prostate

O=C(NOC[C@H](O)CO)c1ccc(F)c(F)c1Nc1ccc(I)cc1F
< 0.01 µM: TGI (HL-60(TB) leukemia) | TGI (UACC-257 melanoma) | TGI (UACC-62 melanoma) | TGI (M14 melanoma) | TGI (MALME-3M melanoma) | TGI (SK-MEL-28 melanoma)
0.0136 µM: TGI (COLO 205 colon)
0.492 µM: TGI (HOP-92 NSCLC)
25.5 µM: TGI (A549 NSCLC)
10.9 µM: TGI (MDA-MB-468 breast)
active: GI50 (SNB-19 CNS) 0.164 µM | GI50 (HOP-62 NSCLC) 0.0116 µM | GI50 (HL-60(TB) leukemia) < 0.01 µM | GI50 (UACC-257 melanoma) < 0.01 µM | GI50 (IGROV1 ovarian) 0.0573 µM | GI50 (UACC-62 melanoma) < 0.01 µM | GI50 (COLO 205 colon) < 0.01 µM | GI50 (HT29 colon) < 0.01 µM | GI50 (KM12 colon) < 0.01 µM | GI50 (M14 melanoma) < 0.01 µM | GI50 (NCI-H460 NSCLC) 0.369 µM | GI50 (LOX IMVI melanoma) < 0.01 µM | GI50 (SN12C renal) < 0.01 µM | GI50 (OVCAR-5 ovarian) < 0.01 µM | GI50 (MALME-3M melanoma) < 0.01 µM | GI50 (K-562 leukemia) 0.205 µM | GI50 (MDA-MB-231 breast) 0.0331 µM | GI50 (NCI-H322M lung) 0.0373 µM | GI50 (SK-MEL-28 melanoma) < 0.01 µM | GI50 (CAKI-1 renal) 0.0974 µM | GI50 (SK-MEL-5 melanoma) < 0.01 µM | GI50 (A549 NSCLC) 0.0196 µM | GI50 (NCI-H226 lung) < 0.01 µM | GI50 (HCC-2998 colon) < 0.01 µM | GI50 (MDA-MB-435 melanoma) < 0.01 µM | GI50 (HOP-92 NSCLC) 0.0133 µM | GI50 (OVCAR-4 ovarian) 0.0375 µM | GI50 (SW-620 colon) < 0.01 µM | GI50 (NCI-H23 lung) < 0.01 µM | GI50 (EKVX NSCLC) 0.358 µM | GI50 (RPMI-8226 leukemia) < 0.01 µM
65.7 µM: TGI (OVCAR-4 ovarian)
85.1 µM: TGI (NCI/ADR-RES ovarian)
22.9 µM: TGI (SN12C renal)
inactive: GI50 (TK-10 renal) 0.689 µM | GI50 (RXF 393 renal) 0.645 µM | GI50 (DU-145 prostate) 3.46 µM | GI50 (SR leukemia) 26.4 µM | GI50 (HCT-15 colon) 0.749 µM | GI50 (MDA-MB-468 breast) 0.865 µM | GI50 (NCI/ADR-RES ovarian) 6.17 µM | GI50 (HS 578T breast) 2.73 µM | GI50 (SK-OV-3 ovarian) 7.02 µM | GI50 (U251 glioblastoma) 0.577 µM | GI50 (OVCAR-3 ovarian) 21.8 µM | GI50 (SF-268 CNS) 33.3 µM | GI50 (A498 renal) 0.436 µM | GI50 (BT-549 breast) 9.53 µM | GI50 (OVCAR-8 ovarian) 11.8 µM | GI50 (SF-539 CNS) 1.34 µM | GI50 ([…]-0 renal) 10.4 µM | GI50 (UO-31 renal) 0.506 µM | GI50 (MCF7 breast) 33.7 µM | GI50 (ACHN renal) 0.471 µM | GI50 (SNB-75 CNS) 2.68 µM | GI50 (NCI-H522 lung) 15.3 µM | GI50 (CCRF-CEM leukemia) 39.8 µM | GI50 (T-47D breast) 11.8 µM | GI50 (MOLT-4 leukemia) 28.1 µM | GI50 (SF-295 CNS) 22.3 µM | GI50 (PC-3 prostate) > 100 µM
92.7 µM: TGI (MOLT-4 leukemia)
24.1 µM: TGI (UO-31 renal)
65.9 µM: TGI (SF-539 CNS)
0.722 µM: TGI (LOX IMVI melanoma)
26.1 µM: TGI (OVCAR-5 ovarian)
18 µM: TGI (RPMI-8226 leukemia)
45.8 µM: TGI (SK-MEL-5 melanoma)
0.934 µM: TGI (MDA-MB-231 breast)
> 100 µM: TGI (SNB-19 CNS) | TGI (HOP-62 NSCLC) | TGI (TK-10 renal) | TGI (RXF 393 renal) | TGI (DU-145 prostate) | TGI (SR leukemia) | TGI (HCT-15 colon) | TGI (HT29 colon) | TGI (HS 578T breast) | TGI (KM12 colon) | TGI (SK-OV-3 ovarian) | TGI (U251 glioblastoma) | TGI (NCI-H460 NSCLC) | TGI (OVCAR-3 ovarian) | TGI (SF-268 CNS) | TGI (K-562 leukemia) | TGI (NCI-H322M lung) | TGI (A498 renal) | TGI (BT-549 breast) | TGI (OVCAR-8 ovarian) | TGI (CAKI-1 renal) | TGI (786-0 renal) | TGI (MCF7 breast) | TGI (ACHN renal) | TGI (NCI-H522 lung) | TGI (MDA-MB-435 melanoma) | TGI (CCRF-CEM leukemia) | TGI (SW-620 colon) | TGI (T-47D breast) | TGI (SF-295 CNS) | TGI (EKVX NSCLC) | TGI (PC-3 prostate)
74.2 µM: TGI (SNB-75 CNS)
0.391 µM: TGI (NCI-H23 lung)
18.1 µM: TGI (NCI-H226 lung)
39.1 µM: TGI (IGROV1 ovarian)
0.0395 µM: TGI (HCC-2998 colon)
